Patent publication US7741348B2, “Bisheterocycle tandem compounds useful as antiviral agents, the uses thereof and the compositions comprising such compounds” (Shanghai Institute of Materia Medica, Chinese Academy of …, priority 2005, dated 2010)

Columns and labels:
[1] = tested on: Vero (African green monkey kidney) cells; assay: 50% toxicity concentration in the anti-herpes virus screen (Vero cells); conditions: 50% toxity concentration, Table 3-1 (herpes virus screen, Vero cells)
[2] = tested on: hepatitis B virus (HBV); assay: HBV-DNA replication in HepG2.2.15 culture supernatant (fluorescent quantification PCR); assay type: cell-based; conditions: for IC50: HepG2.2.15 supernatant, eighth day, fluorescent quantification PCR, read-out: DNA replication IC50
Source text: (§1) Hepatitis B virus (HBV) transgenic human hepatoma carcinoma cell, HepG2.2.15 cell line, can secrete hepatitis B virus particles (containing antigen and DNA) into supernatant when being cultured.
(§2) Under action of antiviral drugs, the contents of HBsAg, HBeAg and viral DNA secreted from cells into the supernatant were detected and are compared with the contents of control groups without drugs, so that the antiviral activity of the compounds of the present invention can be measured as well as the cytotoxic effect of compounds of the present invention. The value concentration of the compounds of the present invention which caused 50% of cells dead and was measured with MTT method was CC50; and the value concentration of the compounds of the present invention which inhibited the secretion of HBsAg and HBeAg detected by ELISA method and inhibited 50% of viral DNA replication detected by fluorescent quantification PCR method was IC50.
(§3) HepG2.2.15 cells were inoculated on a 96-well plate, and the compounds of the present invention were added next day. The medium and the compound solutions of the same concentration were renewed periodically. The culture supernatants were collected on the eighth day to be detected. MTT was added to the cells on the 96-well plate, and MTT dissolving liquid was added after 4 hours to be reacted overnight. OD570 was measured next day on microplate reader. And the cytotoxicity of the compounds of the present invention to the HepG2.2.15 cells, the effect of the compounds of the present invention on the growth of the cells, and the concentration of the compound of the present invention (CC50) causing 50% of the cells dead were estimated according to the OD values.
A suitable amount of culture supernatant was added into a same volume of virus extract solution, and was boiled after mixed uniformly, then centrifuged at 10000 rpm for 5 min under room temperature. A suitable amount of supernatant was collected for PCR amplification. Five HBV-DNA standard samples were used to set a standard curve. According to the obtained viral DNA replication value, the inhibition rates of HBV-DNA replication of the compound of the present invention at different concentrations were calculated, and then the half inhibition rates of the compounds were calculated to obtain IC50. For the samples that can not be calculated for IC50 value, they can be represented by ICX and given the corresponding concentration values.

[3] = Cytotoxicity to HepG2.2.15 cells (MTT method); assay type: cell-based; conditions: human, HepG2.2.15 cells (HBV-transgenic human hepatoma cells), 50% death concentration, eighth day
Source text: as §1, §2, §3

[4] = tested on: hepatitis B virus (HBV); assay: HBeAg secretion in HepG2.2.15 culture supernatant (ELISA); assay type: cell-based; conditions: HepG2.2.15 supernatant, eighth day, read-out: HBeAg secreation IC50
Source text: as §1, §2, §3
(§4) HBsAg and HBeAg were detected with assaying kits (purchased from Sino-American biotechnological company). Samples were added to the coated strip plate, and the same amount of enzyme labeled conjugate was added, after reacting under 37° C. for 1 hour, the plate was washed 5 times. Colorant solutions A and B were added, and the reaction was stopped after 15 minutes, and OD450/630 was measured. The half inhibition rate IC50 of the sample for the HBV antigen was calculated according to the OD values.

[5] = tested on: hepatitis B virus (HBV); assay: HBsAg secretion in HepG2.2.15 culture supernatant (ELISA); assay type: cell-based; conditions: HepG2.2.15 supernatant, eighth day, read-out: HBsAg secreation IC50
Source text: as §1, §2, §3, §4

Structure (SMILES)	CC50 [3]	IC50 [4]	IC50 [5]	IC50 ([2]; Hepatitis B virus)	also measured
Nc1nc2c(ncn2COCCO)c(=O)[nH]1 [ACV (acyclovir), acyclovir, reference compound]					TC50 [1]: >1000 µg/mL
Clc1nc(-c2cccs2)[nH]c1-c1ccccc1 [Wang260]	270 µM	130 µM	71.4 µM		DNA replication IC85 ([2]; ICX: concentration with 85% inhibition of HBV-DNA replication, IC50 not calculable): IC85 = 37 uM
Clc1nc(-c2nccs2)[nH]c1-c1ccccc1 [Wang261]	123 µM	37 µM	92.4 µM		
CCCc1[nH]c(-c2cccs2)nc1C(=O)OCC [Wang264]	124 µM	95.5 µM	41.3 µM		
CCCc1[nH]c(-c2nccs2)nc1C(=O)OCC [Wang265]	548 µM	38.8 µM	131 µM		DNA replication IC44 ([2]; ICX: concentration with 44% inhibition of HBV-DNA replication, IC50 not calculable): IC44 = 4.1 uM
CC(C)Cc1sc(-c2nccs2)nc1C(=O)O [Wang268-1]	437 µM	101 µM	90 µM	153 µM	
CCCCc1sc(-c2nccs2)nc1C(=O)O [Wang268]		128 µM	37.2 µM		DNA replication IC53 ([2]; ICX: concentration with 53% inhibition of HBV-DNA replication, IC50 not calculable): IC53 = 125 uM
CCOC(=O)c1nc(-c2cccs2)[nH]c1CC(C)C [Wang278-1]	90.3 µM	19 µM	34.1 µM		DNA replication IC88 ([2]; ICX: concentration with 88% inhibition of HBV-DNA replication, IC50 not calculable): IC88 = 1.37 uM
CCCCc1[nH]c(-c2cccs2)nc1C(=O)OCC [Wang278]	153 µM	24 µM	67.3 µM	4.8 µM	
CCOC(=O)c1nc(-c2nccs2)[nH]c1CC(C)C [Wang279-1]	786 µM	102 µM	143 µM		DNA replication IC60 ([2]; ICX: concentration with 60% inhibition of HBV-DNA replication, IC50 not calculable): IC60 = 37 uM
COC(=O)c1nc(-c2nccs2)sc1CC(C)C [Wang282-1]		21.7 µM	67.6 µM	2.4 µM	
CCCCc1sc(-c2nccs2)nc1C(=O)OC [Wang282]	397 µM	57.3 µM	58.8 µM	19.4 µM	
CCOC(=O)c1nc(-c2cccs2)[nH]c1-c1ccccc1 [Wang298]	569 µM	209 µM	144 µM		
O=C(O)c1nc(-c2nccs2)sc1Cc1ccccc1 [Wang302]		83.2 µM		63.1 µM	
COC(=O)c1nc(-c2nccs2)sc1Cc1ccccc1 [Wang316]	174 µM	70.5 µM	33.7 µM		IC20 ([2]; Hepatitis B virus, HepG2.2.15): 31.3 µM
COC(=O)c1nc(-c2ncco2)sc1-c1ccc(F)cc1Cl [Wang338]	200 µM	22.3 µM	77.6 µM	6.1 µM	
